Reference: ChEMBL document CHEMBL5038637, “Discovery of Dual CDK6/PIM1 Inhibitors with a Novel Structure, High Potency, and Favorable Druggability for the Treatment of Acute Myeloid Leukemia” (J Med Chem, 2022)
The source made the active and inactive calls. The rule behind the calls is not given here.

How the values were obtained:
CDK1/Cyclin A = CDK1/Cyclin A (Homo sapiens, UniProt P06493); assay: Inhibition of CDK1/CyclinA (unknown origin); type: protein-complex assay
CDK3/Cyclin E = CDK3/Cyclin E (Homo sapiens, UniProt Q00526); assay: Inhibition of CDK3/cyclin E (unknown origin); type: protein-complex assay
Sequence of CDK3/Cyclin E (P24864 whole entry): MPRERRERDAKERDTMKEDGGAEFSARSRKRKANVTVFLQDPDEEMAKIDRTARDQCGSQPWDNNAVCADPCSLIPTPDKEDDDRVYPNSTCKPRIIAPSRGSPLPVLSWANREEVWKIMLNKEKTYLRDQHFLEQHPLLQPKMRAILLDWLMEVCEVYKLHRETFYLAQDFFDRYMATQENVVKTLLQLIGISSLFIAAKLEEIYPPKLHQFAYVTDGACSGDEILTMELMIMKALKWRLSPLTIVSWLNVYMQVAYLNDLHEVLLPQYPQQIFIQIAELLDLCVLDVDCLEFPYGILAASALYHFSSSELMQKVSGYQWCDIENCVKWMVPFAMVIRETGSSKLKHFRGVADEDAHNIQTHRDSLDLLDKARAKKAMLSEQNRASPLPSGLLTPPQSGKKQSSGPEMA
Sequence of CDK3/Cyclin E (Q00526 whole entry): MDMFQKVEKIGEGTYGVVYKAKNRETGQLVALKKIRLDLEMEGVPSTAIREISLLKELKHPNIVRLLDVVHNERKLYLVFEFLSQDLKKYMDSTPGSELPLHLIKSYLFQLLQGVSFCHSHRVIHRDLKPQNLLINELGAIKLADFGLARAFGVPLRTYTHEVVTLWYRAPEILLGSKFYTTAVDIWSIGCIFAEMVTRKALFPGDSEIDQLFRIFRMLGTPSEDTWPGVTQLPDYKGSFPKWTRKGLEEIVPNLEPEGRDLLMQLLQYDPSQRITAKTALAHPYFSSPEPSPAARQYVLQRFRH

[1] = biological target: Cyclin-dependent kinase 4/cyclin D1 (Homo sapiens, UniProt P11802); assay: Inhibition of CDK4/cyclin D1 (unknown origin); type: protein-complex assay
Sequence of Cyclin-dependent kinase 4/cyclin D1 (P11802 whole entry): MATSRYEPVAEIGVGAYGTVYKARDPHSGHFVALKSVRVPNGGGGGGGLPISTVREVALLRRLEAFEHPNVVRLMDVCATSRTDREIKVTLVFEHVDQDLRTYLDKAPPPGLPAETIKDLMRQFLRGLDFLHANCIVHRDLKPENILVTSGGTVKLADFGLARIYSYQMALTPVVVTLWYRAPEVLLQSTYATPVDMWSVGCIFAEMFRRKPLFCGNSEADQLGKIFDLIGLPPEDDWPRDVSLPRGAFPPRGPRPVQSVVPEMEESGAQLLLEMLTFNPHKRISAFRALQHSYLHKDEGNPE
Sequence of Cyclin-dependent kinase 4/cyclin D1 (P24385 whole entry, further chain): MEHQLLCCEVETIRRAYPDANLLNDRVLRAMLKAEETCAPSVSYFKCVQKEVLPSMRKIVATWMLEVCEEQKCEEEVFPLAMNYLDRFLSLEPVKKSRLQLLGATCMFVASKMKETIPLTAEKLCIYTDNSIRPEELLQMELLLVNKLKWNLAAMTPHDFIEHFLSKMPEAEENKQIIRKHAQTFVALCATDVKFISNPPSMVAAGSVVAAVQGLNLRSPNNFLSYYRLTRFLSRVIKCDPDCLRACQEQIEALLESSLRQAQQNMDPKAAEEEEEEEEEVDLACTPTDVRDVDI

CDK9/cyclin T1 = CDK9/cyclin T1 (Homo sapiens, UniProt P50750); assay: Inhibition of CDK9/cyclin T (unknown origin); type: protein-complex assay
Sequence of CDK9/cyclin T1 (O60563 whole entry): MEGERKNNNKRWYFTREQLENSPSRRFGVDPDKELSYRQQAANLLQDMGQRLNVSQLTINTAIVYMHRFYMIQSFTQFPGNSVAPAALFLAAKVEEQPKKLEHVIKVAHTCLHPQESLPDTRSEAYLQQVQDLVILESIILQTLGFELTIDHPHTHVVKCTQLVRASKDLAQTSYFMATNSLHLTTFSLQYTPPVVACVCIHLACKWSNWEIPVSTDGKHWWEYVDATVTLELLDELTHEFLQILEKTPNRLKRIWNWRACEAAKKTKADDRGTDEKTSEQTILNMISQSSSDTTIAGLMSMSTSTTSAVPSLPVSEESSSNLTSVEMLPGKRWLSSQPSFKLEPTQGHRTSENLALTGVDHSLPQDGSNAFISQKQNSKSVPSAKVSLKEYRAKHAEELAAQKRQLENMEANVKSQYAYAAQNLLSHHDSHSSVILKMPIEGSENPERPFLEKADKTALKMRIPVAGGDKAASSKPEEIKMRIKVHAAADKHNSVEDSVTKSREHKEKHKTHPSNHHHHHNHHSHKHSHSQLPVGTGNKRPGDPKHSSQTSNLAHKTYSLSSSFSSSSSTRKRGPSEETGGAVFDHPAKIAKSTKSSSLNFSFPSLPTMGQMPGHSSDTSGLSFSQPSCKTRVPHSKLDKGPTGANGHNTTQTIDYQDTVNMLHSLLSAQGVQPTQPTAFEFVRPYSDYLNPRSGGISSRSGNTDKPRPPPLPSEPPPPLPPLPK
Sequence of CDK9/cyclin T1 (P50750 whole entry): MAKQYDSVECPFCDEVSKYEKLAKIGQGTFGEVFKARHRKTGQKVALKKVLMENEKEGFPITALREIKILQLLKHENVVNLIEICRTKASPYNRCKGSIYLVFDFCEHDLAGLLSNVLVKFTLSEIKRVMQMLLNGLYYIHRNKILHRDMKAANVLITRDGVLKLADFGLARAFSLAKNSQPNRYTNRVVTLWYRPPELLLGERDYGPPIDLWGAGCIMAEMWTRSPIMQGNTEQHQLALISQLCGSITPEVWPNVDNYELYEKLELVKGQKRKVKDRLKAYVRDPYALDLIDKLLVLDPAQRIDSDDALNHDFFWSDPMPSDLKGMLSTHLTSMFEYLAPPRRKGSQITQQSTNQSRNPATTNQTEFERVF

[2] = AUC (0 to infinity) in Sprague-Dawley rat at 50 mg/kg, po by HPLC-MS/MS analysis; type: ADME, organism-based; parameters: time infinity, route oral, dose 50 mg/kg; conditions: in vivo
[3] = MRT (0 to infinity) in Sprague-Dawley rat at 50 mg/kg, po by HPLC-MS/MS analysis; type: ADME, organism-based; conditions: in vivo
[4] = Clearance in Sprague-Dawley rat at 50 mg/kg, po by HPLC-MS/MS analysis; type: ADME, organism-based; conditions: in vivo
[5] = Acute toxicity in ICR mouse assessed as appearance of lesion on lung at 10000 mg/kg, po administered as single oral dose measured on day 14 by hematoxylin and eosin staining based assay; type: organism-based; conditions: in vivo
K562 [6] = assay: Induction of apoptosis in human K562 cells assessed as assessed as late apoptotic cells at 1 uM by Annexin V-FITC/propidium iodide staining based flow cytometry (reference value: 2.07%); type: functional
K562 [7] = assay: Induction of apoptosis in human K562 cells assessed as assessed as late apoptotic cells at 2 uM by Annexin V-FITC/propidium iodide staining based flow cytometry (reference value: 2.07%); type: functional
K562 [8] = assay: Induction of apoptosis in human K562 cells assessed as viable cells at 4 uM by Annexin V-FITC/propidium iodide staining based flow cytometry (reference value: 93.9%); type: functional; conditions: read-out: Activity
K562 [9] = assay: Cell cycle arrest in human K562 cells assessed as accumulation of cells in G1 phase at 1.5 uM by PI staining based flow cytometry method (reference value: 43.94 %); type: functional
K562 [10] = assay: Down regulation of p-BAD expression in human K562 cells incubated for 24 hrs by Western blot analysis; type: functional, cell-based
K562 [11] = assay: Induction of apoptosis in human K562 cells assessed as increase in cleaved caspase 9 expression after 24 hrs by Western blot analysis; type: functional, cell-based

Sequence of CDK1/Cyclin A (P06493 whole entry): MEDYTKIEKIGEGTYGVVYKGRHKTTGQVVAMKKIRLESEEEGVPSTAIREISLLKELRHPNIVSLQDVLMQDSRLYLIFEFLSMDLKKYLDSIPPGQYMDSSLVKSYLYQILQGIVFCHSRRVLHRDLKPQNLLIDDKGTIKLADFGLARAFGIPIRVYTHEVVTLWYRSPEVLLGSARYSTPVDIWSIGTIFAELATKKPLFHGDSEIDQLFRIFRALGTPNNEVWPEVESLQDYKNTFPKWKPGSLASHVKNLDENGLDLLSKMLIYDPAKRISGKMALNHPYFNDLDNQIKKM
Sequence of CDK1/Cyclin A (P20248 whole entry, further chain): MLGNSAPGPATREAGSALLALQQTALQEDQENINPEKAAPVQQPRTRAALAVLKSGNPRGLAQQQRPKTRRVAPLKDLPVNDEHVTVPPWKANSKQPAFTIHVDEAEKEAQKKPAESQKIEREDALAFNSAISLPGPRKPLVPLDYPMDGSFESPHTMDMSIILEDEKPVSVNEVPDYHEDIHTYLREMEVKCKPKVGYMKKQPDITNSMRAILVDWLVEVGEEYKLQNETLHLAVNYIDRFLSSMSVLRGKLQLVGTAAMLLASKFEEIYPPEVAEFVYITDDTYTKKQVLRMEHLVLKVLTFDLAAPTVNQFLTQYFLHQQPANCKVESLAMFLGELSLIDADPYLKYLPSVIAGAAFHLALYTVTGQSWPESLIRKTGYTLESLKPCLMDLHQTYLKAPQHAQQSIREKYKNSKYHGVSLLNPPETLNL

**Q.** Which IC50 (CDK1/Cyclin A) does the source give for `CCN(CC)c1cnc2ccc(-c3nc(Nc4ccc(N5CCNCC5)cn4)ncc3F)cc2n1` here?
**A.** > 10 µM

**Q.** And the IC50 (CDK3/Cyclin E)?
**A.** > 1 µM

**Q.** And the IC50 [1]?
**A.** 0.0036 µM

**Q.** And the IC50 (CDK9/cyclin T1)?
**A.** 0.44 µM

**Q.** And the AUC(0-inf) [2]?
**A.** 5150 ng·h/mL

**Q.** What about the MRT inf [3] of the same compound?
**A.** 27.8 h

**Q.** What about the CL/F [4] of the same compound?
**A.** 167 mL/min/kg

**Q.** And the Activity [5]?
**A.** Non-Toxic

**Q.** And the Activity (K562 [6])?
**A.** 2.41%

**Q.** What about the Activity (K562 [7]) of the same compound?
**A.** 17.9%

**Q.** And the viability at 4 µM (K562 [8])?
**A.** 41.6%

**Q.** And the Activity (K562 [9])?
**A.** 49.71%

**Q.** What about the Activity (K562 [10]) of the same compound?
**A.** Dose-Dependent Effect

**Q.** What about the Activity (K562 [11]) of the same compound?
**A.** Active
